Assay results from paper PMC5472279, “Genetic, structural, and chemical insights into the dual function of GRASP55 in germ cell Golgi remodeling and JAM-C polarized localization during spermatogenesis” (PLoS Genetics, 2017).

How the values were obtained:
His-GRASP55 PDZ12 = biological target: T1, His-GRASP55 PDZ12 (Mus musculus, UniProt Q99JX3); experiment: differential scanning fluorimetry (SYPRO orange); type: binding; details: 4 μM protein, 50 μM Graspin, PBS, 2.5% DMSO
T1 construct: gene Gorasp2; tandem PDZ domains PDZ12 aa 2-208, N-terminal 6His tag, E. coli BL21(DE3)
Source text: differential scanning fluorimetry (SYPRO orange) on His-GRASP55 PDZ12 | […], but not the JAM-C peptide, decreased the GRASP55 melting temperature

GST-GRASP55 FL = biological target: T2, GST-GRASP55 FL (Mus musculus, UniProt Q99JX3); experiment: HTRF competition with biotinylated JAM-B C-terminal 19-mer peptide; type: binding
T2 construct: gene Gorasp2; full-length aa 2-451, N-terminal GST tag, E. coli BL21(DE3)

- IC50 (GST-GRASP55 FL): 8.4 µM
Compound: CCCCCn1c(SCCCn2c(Br)nc3c2c(=O)[nH]c(=O)n3C)nc2c1c(=O)[nH]c(=O)n2C [Graspin]
- dTm (His-GRASP55 PDZ12): Graspin, but not the JAM-C peptide, decreased the GRASP55 melting temperature
